Columns and labels:
[1] = Adiabatic calorimetry
[2] = molar heat capacity at constant pressure; details: 101.33 kPa

CCCn1cc[n+](C)c1.N[C@@H](CCC(=O)O)C(=O)[O-]
Details | Glass transition temperature [°C]
[1] | -33

[2]
Details | molar heat capacity at constant pressure [J/K/mol]
86.07 K, Glass | 150.25
88.05 K, Glass | 152.63
90.01 K, Glass | 154.9
91.97 K, Glass | 157.5
93.95 K, Glass | 159.49
95.92 K, Glass | 162.14
97.89 K, Glass | 164.13
99.85 K, Glass | 166.66
102.59 K, Glass | 169.25
105.33 K, Glass | 173.04
107.28 K, Glass | 175.8
109.24 K, Glass | 177.98
111.23 K, Glass | 179.21
113.2 K, Glass | 181.07
115.14 K, Glass | 183.75
117.1 K, Glass | 185.58
119.09 K, Glass | 186.96
121.06 K, Glass | 188.82
123 K, Glass | 191.13
124.97 K, Glass | 193.29
126.97 K, Glass | 194.36
128.94 K, Glass | 196.26
130.9 K, Glass | 199.43
132.84 K, Glass | 200.78
134.79 K, Glass | 203.07
136.78 K, Glass | 204.43
138.75 K, Glass | 206.24
140.7 K, Glass | 207.69
142.65 K, Glass | 208.89
144.61 K, Glass | 211.05
146.6 K, Glass | 212.89
148.57 K, Glass | 215.15
150.53 K, Glass | 216.91
153.04 K, Glass | 219.16
155.56 K, Glass | 221.42
157.53 K, Glass | 223.77
159.49 K, Glass | 225.64
161.44 K, Glass | 227
163.38 K, Glass | 228.24
165.3 K, Glass | 230.3
167.27 K, Glass | 232.18
169.28 K, Glass | 234.1
171.28 K, Glass | 236.74
173.27 K, Glass | 237.97
175.25 K, Glass | 240.31
177.21 K, Glass | 242.87
179.17 K, Glass | 243.7
181.11 K, Glass | 245.51
183.05 K, Glass | 248.04
185.03 K, Glass | 250.2
187.05 K, Glass | 252.7
189.06 K, Glass | 255.28
191.06 K, Glass | 257.14
193.05 K, Glass | 259.68
195.03 K, Glass | 262.63
197.01 K, Glass | 264.18
198.97 K, Glass | 266.54
200.93 K, Glass | 268.59
203.31 K, Glass | 271.02
205.67 K, Glass | 273.69
207.65 K, Glass | 277.76
209.69 K, Glass | 281.69
211.73 K, Glass | 283.31
213.76 K, Glass | 284.6
215.8 K, Glass | 286.92
217.82 K, Glass | 290.11
219.85 K, Glass | 294.21
221.88 K, Glass | 296.62
223.91 K, Glass | 297.46
225.94 K, Glass | 299.66
227.97 K, Glass | 300.73
229.99 K, Glass | 302.48
231.96 K, Glass | 310.06
234 K, Glass | 323.45
236.07 K, Glass | 333.04
238.02 K, Glass | 358.09
239.86 K, Glass | 407.73
242.01 K, Glass | 462.82
244.24 K, Liquid | 471
246.18 K, Liquid | 472.35
248.12 K, Liquid | 473.61
250.04 K, Liquid | 475.54
251.97 K, Liquid | 476.41
253.9 K, Liquid | 477.37
255.89 K, Liquid | 478.45
257.87 K, Liquid | 480.19
259.86 K, Liquid | 481.42
261.91 K, Liquid | 483.73
263.96 K, Liquid | 485.28
266 K, Liquid | 486.86
268.04 K, Liquid | 487.89
270.07 K, Liquid | 489.67
272.09 K, Liquid | 491.51
274.12 K, Liquid | 493.23
276.13 K, Liquid | 495.7
278.15 K, Liquid | 497.67
280.16 K, Liquid | 498.94
282.16 K, Liquid | 501.05
284.17 K, Liquid | 503.38
286.16 K, Liquid | 505.39
288.12 K, Liquid | 507.35
290.06 K, Liquid | 509.26
292.08 K, Liquid | 511.23
294.05 K, Liquid | 513.1
296.01 K, Liquid | 514.91
297.97 K, Liquid | 516.83
299.93 K, Liquid | 518.67
301.88 K, Liquid | 520.07
303.82 K, Liquid | 521.96
305.77 K, Liquid | 523.25
307.7 K, Liquid | 524.77
309.64 K, Liquid | 526.25
311.57 K, Liquid | 527.31
313.5 K, Liquid | 528.82
315.43 K, Liquid | 530.52
317.41 K, Liquid | 531.97
319.47 K, Liquid | 533.47
321.52 K, Liquid | 534.99
323.57 K, Liquid | 536.53
325.61 K, Liquid | 538.93
327.65 K, Liquid | 539.74
329.68 K, Liquid | 541.83
331.71 K, Liquid | 543.17
333.73 K, Liquid | 544.98
335.75 K, Liquid | 546.87
337.76 K, Liquid | 549.25
339.77 K, Liquid | 550.76
341.77 K, Liquid | 553.01
343.77 K, Liquid | 554.52
345.76 K, Liquid | 557
347.75 K, Liquid | 559.26
349.74 K, Liquid | 561.22
351.73 K, Liquid | 563.15
353.72 K, Liquid | 565.12
355.7 K, Liquid | 566.91
357.68 K, Liquid | 568.06
